From patent publication US20260048151A1, “HEMICYANINE PUSH-PULL DYES BASED ON CHROMENE ELECTRON DONORS” (UNIVERSITY OF CONNECTICUT, priority 2022, published 2026)
“And” between values parts separate entries of the source, which are not always exact repeats. Equal entries are not always repeated.

Tested on: intact mouse hearts
Experiment: Optical mapping of cardiac electrical activity in isolated mouse hearts
Procedure: All animal handling and procedures were performed in accordance with the guidelines from Directive 2010/63/EU of the European Parliament on the protection of animals used for scientific purposes. The experimental protocol was approved by the Italian Ministry of Health (protocol number 944/2018-PR). Transgenic mice (ChR2-mhc6-cre+) with cardiomyocyte-specific expression of Channelrhodopsin-2 (ChR2, H134R variant) were generated and employed in this study. Wild-type mice (C57BL/6J) and ChR2-mhc6-cre+ mice (6 months old) were heparinized (0.1 mL at 5000 units/mL) and anesthetized by inhaled isoflurane (5%). The excised heart was immediately bathed in Krebs-Henseleit (KH) solution and cannulated through the aorta. The KH buffer contained (in mM): 120 NaCl, 5 KCl, 2 MgS2 O4-7H2O, 20 NaHCO3, 1.2 NaH2PO4—H2O, 1.8 CaCl2 and 10 glucose, pH 7.4 when equilibrated with carbogen. Cardiac contraction was inhibited during the entire experiment with 1 μM blebbistatin (Enzo Life Sciences, Farmingdale, NY, USA) in the solution. The cannulated heart was perfused through the aorta (using a horizontal-Langendorff perfusion system) with the KH solution and then transferred to a custom-built optical mapping chamber at a constant flow of 2.5 mL/min at (36±0.5)° C. Two platinum electrodes were placed below the heart for monitoring cardiac electrical activity via electrocardiogram (ECG). 1 mL of perfusion solution containing the voltage sensitive dye (VSD; ElectroFluor730p: 10 μM; di-4-ANBDQPQ: 6 μg/mL) was bolus injected into the aorta. All the experiments were performed at (36±0.5° C.) within 1 hour after dye loading to avoid potential re-distribution of the dye and accumulation of phototoxic by-products.
Optical mapping was performed using a custom-made mesoscope. Stained mouse hearts were illuminated in a wide-field configuration using a 2× objective (TL2x-SAP, Thorlabs, Newton, NJ, USA) and employing four different LED operating at a wavelength centred at 730 nm, 625 nm, 590 nm and 530 nm (M730L5, M625L3, M590L4 and M530L4 Thorlabs, Newton, NJ, USA) followed by excitation band-pass filters at 730/39 nm, 640/40 nm, 589/15 nm (FF01-730/39-25, FF01-640/40-25, FF01-589/15-25, Semrock) and 530/43 nm (MF530-43, Thorlabs) respectively. di-4-ANBDQPQ stained hearts were excited at 625 nm (0.875 mW/mm^2) and a dichroic beam splitter (FF685-Di02-25×36, Semrock) followed by a band-pass filter at 775/140 nm (FF01-775/140-25, Semrock) was used for collecting the emitted fluorescent signal. […] Light intensities were measured at sample site using a photodiode sensor (PD300-3W, Ophir Optronics, Jerusalem, Israel). […]

Structure (SMILES): CCCCCCN(CCCCCC)c1ccc2c(c1)OCC(/C=C/c1c(F)c[n+](CCC[N+](CC)(CC)CC)c3ccccc13)=C2.[Br-].[Br-] [2c]
- sensitivity to an AP (APA), % decrease in fluorescence at the peak of an AP (730 nm excitation, compared with di-4-ANBDQPQ): higher than that of di-4-ANBDQPQ
- differences in AP kinetics (APRS, APD50, APD70, APD90) (compared with di-4-ANBDQPQ, student's t-test, listed as ElectroFluor730p): no statistically significant differences in AP parameters excepting AP Amplitude
- inversion point (isosbestic point) of sensitivity (excitation 730, 590, 530 nm, exponential fit, listed as ElectroFluor730p): ≈ 571 nm and ~571 nm
- pharmacological effects of the VSD (isolated mouse hearts): no measurable pharmacological effects
